Test results published in patent US12180306B2, “Anti-allergic peptide and use thereof for immune regulation and anti-allergy” (Greenyn Biotechnology Co., Ltd, priority 2022, dated 2024).

Tested on: mouse mast cells P815
Test: Inhibition of IL-4 and IL-13 secretion by compound 48/80-induced mouse mast cells P815
Format: cell-based
Parameters: key to IL-13 Concentration decrease percentage (%) / IL-4 Concentration decrease percentage (%): N represents that the results obtained have not decreased
Details: synthetic peptides; for IL-4 Concentration decrease percentage (%) / IL-13 Concentration decrease percentage (%): P815 cells, compound 48/80 10 μg/mL; for effects in inhibiting secretion of IL-4 and IL-13 by cells: comparison within Table 3; for inhibiting allergic reactions: conclusion from Table 3
Protocol: Referring to the method disclosed in Example 3, an ability of each of the above synthetic sequences in inhibiting secretion of cytokines such as IL-4 and IL-13 is tested, the results are shown in Table 3, where N represents that the results obtained have not decreased.

| Sequence | IL-4 Concentration decrease percentage (%) | IL-13 Concentration decrease percentage (%) | effects in inhibiting secretion of IL-4 and IL-13 by cells | inhibiting allergic reactions |
| --- | --- | --- | --- | --- |
| ADALQLVLAV [Peptide 15] | 2.7% | 3.8% | – | – |
| DLDVVVALGI [Peptide 5] | 7.3% | 24.0% | better effects | capable of inhibiting allergic reactions |
| DLQLAGLIGL [Peptide 1] | 14.5% | 24.0% | – | capable of inhibiting allergic reactions |
| EWLLGLLGI [Peptide 4] | 19.9% | 35.4% | – | capable of inhibiting allergic reactions |
| GLGDAKVALGI [Peptide 3] | 5.1% | 21.7% | better effects | capable of inhibiting allergic reactions |
| GVSGGVLAAILG [Peptide 9] | 5.8% | 2.7% | – | – |
| KIVNQVNHLNPT [Peptide 12] | N | 10.8% | – | – |
| LVPWSIIGL [Peptide 14] | N | 9.8% | – | – |
| NKKQAAALGI [Peptide 8] | 1.0% | 11.4% | – | – |
| NPALQVIKV [Peptide 2] | 8.1% | 27.1% | better effects | capable of inhibiting allergic reactions |
| PMALLAVLGL [Peptide 7] | 4.1% | 5.2% | – | – |
| PPYQGAPLM [Peptide 11] | 10.0% | N | – | – |
| QTAQALVLIG [Peptide 13] | N | 12.1% | – | – |
| TANAIGLAGLI [Peptide 10] | 9.3% | N | – | – |
| TRQKALAALGI [Peptide 16] | N | 5.9% | – | – |
| VGNSLAAVIIG [Peptide 6] | 0.9% | 2.7% | – | – |
